One data set concerns the target T1, PAR1 (Cavia porcellus, UniProt A0A286XH07).
T1 sequence (A0A286XH07 24-426): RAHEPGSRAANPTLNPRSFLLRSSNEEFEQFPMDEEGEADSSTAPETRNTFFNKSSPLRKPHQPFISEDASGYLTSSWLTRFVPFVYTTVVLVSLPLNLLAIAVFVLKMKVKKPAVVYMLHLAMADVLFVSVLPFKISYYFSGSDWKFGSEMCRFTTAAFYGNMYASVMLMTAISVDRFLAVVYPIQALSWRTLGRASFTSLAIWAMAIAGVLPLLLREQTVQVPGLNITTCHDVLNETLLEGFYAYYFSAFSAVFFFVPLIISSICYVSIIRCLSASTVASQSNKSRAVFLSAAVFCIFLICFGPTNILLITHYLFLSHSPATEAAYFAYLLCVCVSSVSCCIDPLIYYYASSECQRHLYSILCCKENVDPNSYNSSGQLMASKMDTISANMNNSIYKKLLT
Kind of data set: Activation of guinea pig platelets. It counts as cell-based.

The next data set relates to guinea pigs. Kind of data set: Guinea pig carotid artery FeCl3 injury arterial thrombosis model. The data set is classed as in vivo. The note with it: clopidogrel 1 mg/kg PO 4 h prior alone, 90 min period, n=5.
The conditions of data set [1]: human, ref Kosoglou, 2012 #2596, cited from earlier work.

The structures appear in SMILES notation. pEC50: −log10 of the molar value.

`CC(C)C[C@H](NC(=O)[C@H](CC(C)C)NC(=O)[C@H](Cc1ccccc1)NC(=O)[C@@H](N)CO)C(=O)N[C@@H](CCCN=C(N)N)C(=O)N[C@@H](CC(N)=O)C(=O)O` [SFLLRN]: the pEC50 (usually the negative decadic logarithm of the EC50, by convention in mol/L) at PAR1 is 5.60.
On to `COC(=O)[C@H](c1ccccc1Cl)N1CCc2sccc2C1` [clopidogrel], for which the “Protection against arterial occlusion when used alone” value in the data set on guinea pigs was “non-significant protection”.
As to `CCOC(=O)N[C@@H]1CC[C@@H]2[C@@H](C1)C[C@H]1C(=O)O[C@H](C)[C@H]1[C@H]2/C=C/c1ccc(-c2cccc(F)c2)cn1` [vorapaxar], the “Pharmacodynamic (PD) half life / duration of inhibition of platelet function” value in data set [1] (single loading dose) was “up to 3 weeks”. Besides, in data set [1], the Plasma half-life is 120 to 264 h.
